Measurements: patent publication US20200017495A1, “NOVEL HETEROCYCLIC COMPOUNDS AND THEIR USE IN PREVENTING OR TREATING BACTERIAL INFECTIONS” (priority 2017, published 2020)

Experiments:
Experiment in all cases: MIC of compounds alone and combined with antibacterials, broth microdilution (CLSI)
Assay type in all cases: cell-based
[1] = test system: Enterobacter cloacae (ECL) isolates
Summary of the method: (§1)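 Broth microdilution in cation-adjusted Mueller-Hinton broth, inoculum 5.10^5 CFU/mL, 16-20 h at 35° C in ambient air, on genotyped isolates. Compound MIC, alone or with an antibacterial, taken visually as lowest concentration preventing growth; antibacterial MIC determined at each compound concentration.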

[2] = test system: Serratia marcescens (SMA) isolates
Summary of the method: as §1

[3] = test system: Klebsiella oxytoca (KOX) isolates
Summary of the method: as §1

[4] = test system: Providencia rettgeri (PRE) isolates
Summary of the method: as §1

[5] = test system: Escherichia coli (ECO) isolates
Summary of the method: as §1

Q: For `CO/N=C(\C(=O)N[C@@H]1C(=O)N2C(C(=O)O)=C(COC(N)=O)CS[C@H]12)c1ccco1` [FUR, Cefuroxime], which MIC ([1]; strain ECL 2185D, genotype OXA-163) is on record?
A: >256 µg/mL

Q: What about the MIC ([1]; strain ECL 190310, genotype AmpC) of the same molecule?
A: >256 µg/mL

Q: What about the MIC ([1]; strain ECL 190408, genotype TEM-1, CTX-M-15, OXA-1) of the same molecule?
A: >256 µg/mL

Q: What about the MIC ([1]; strain ECL 200138, genotype AmpC) of the same molecule?
A: >256 µg/mL

Q: And the MIC ([1]; strain ECL 200322, genotype TEM-1, CTX-M-15, OXA-1)?
A: >256 µg/mL

Q: What about the MIC ([1]; strain ECL 260033, genotype AmpC) of the same molecule?
A: >256 µg/mL

Q: And the MIC ([1]; strain ECL 260253, genotype TEM-1, KPC-3)?
A: >256 µg/mL

Q: What about the MIC ([1]; strain ECL 260323, genotype AmpC) of the same molecule?
A: >256 µg/mL

Q: What about the MIC ([1]; strain ECL 260508, genotype TEM-1, CTX-M-15) of the same molecule?
A: >256 µg/mL

Q: And the MIC ([1]; strain ECL NEM146383, genotype AmpC)?
A: >256 µg/mL

Q: And the MIC ([1]; strain ECL P99, genotype AmpC)?
A: >512 µg/mL

Q: What about the MIC ([1]; strain ECL UFR12, genotype CTX-M-9, OXA-48) of the same molecule?
A: >256 µg/mL

Q: And the MIC ([1]; strain ECL UFR13, genotype TEM-1, SHV-12, CTX-M-9, OXA-48)?
A: >256 µg/mL

Q: And the MIC ([1]; strain ECL UFR14, genotype TEM-1, SHV-12, CTX-M-15, DHA-1, OXA-1, OXA-48)?
A: >256 µg/mL

Q: What about the MIC ([1]; strain ECL UFR60, genotype TEM-1, CTX-M-15, KPC-2) of the same molecule?
A: >256 µg/mL

Q: What about the MIC ([1]; strain ECL UFR70, genotype TEM-1, CTX-M-15, CMY-2, OXA-1, Porin loss) of the same molecule?
A: >256 µg/mL

Q: What about the MIC ([1]; strain ECL UFR84, genotype TEM-1, AmpC, OXA-1) of the same molecule?
A: >256 µg/mL

Q: And the MIC ([1]; strain ECL UFR85, genotype TEM-1, CTX-M-15, AmpC)?
A: >256 µg/mL

Q: And the MIC ([1]; strain ECL UFR194, genotype OXA-48)?
A: 32 µg/mL

Q: And the MIC ([1]; strain ECL UFR195, genotype TEM-1, CTX-M-15, OXA-1, OXA-48)?
A: >256 µg/mL

Q: And the MIC ([1]; strain ECL UFR196, genotype TEM-1, CTX-M-15, OXA-1, OXA-48)?
A: >256 µg/mL

Q: What about the MIC ([1]; strain ECL UFR197, genotype TEM-1, CTX-M-15, OXA-1, OXA-48) of the same molecule?
A: >256 µg/mL

Q: And the MIC ([1]; strain ECL UFR198, genotype TEM-1, SHV-12, CTX-M-15, DHA-1, OXA-1, OXA-48)?
A: >256 µg/mL

Q: What about the MIC ([1]; strain ECL UFR200, genotype TEM-1, SHV-12, KPC-2) of the same molecule?
A: >256 µg/mL

Q: And the MIC ([2]; strain SMA UFR30, genotype OXA-405)?
A: >256 µg/mL

Q: What about the MIC ([2]; strain SMA UFR134, genotype TEM-1, BES-1) of the same molecule?
A: >256 µg/mL

Q: What about the MIC ([2]; strain SMA UFR135, genotype TEM-1, KPC-2) of the same molecule?
A: >256 µg/mL

Q: What about the MIC ([2]; strain SMA UFR136, genotype TEM-1, SHV-12, KPC-2) of the same molecule?
A: >256 µg/mL

Q: What about the MIC ([2]; strain SMA UFR137, genotype SME-1) of the same molecule?
A: 256 µg/mL

Q: And the MIC ([2]; strain SMA UFR138, genotype SME-1)?
A: 256 µg/mL

Q: And the MIC ([2]; strain SMA UFR139, genotype SME-2)?
A: >256 µg/mL

Q: And the MIC ([2]; strain SMA UFR141, genotype OXA-48)?
A: >256 µg/mL

Q: What about the MIC ([2]; strain SMA UFR142, genotype OXA-48) of the same molecule?
A: >256 µg/mL

Q: What about the MIC ([2]; strain SMA UFR143, genotype CTX-M-15, OXA-1, OXA-48) of the same molecule?
A: >256 µg/mL

Q: What about the MIC ([2]; strain SMA UFR238, genotype OXA-48) of the same molecule?
A: >256 µg/mL

Q: And the MIC ([2]; strain SMA UFR239, genotype ESAC)?
A: 256 µg/mL

Q: And the MIC ([3]; strain KOX UFR21, genotype TEM-1, CTX-M-15, OXA-48)?
A: >256 µg/mL

Q: What about the MIC ([3]; strain KOX UFR173, genotype OXY2-2) of the same molecule?
A: >256 µg/mL

Q: What about the MIC ([3]; strain KOX UFR223, genotype SHV-11, OXA-48) of the same molecule?
A: 8 µg/mL

Q: What about the MIC ([3]; strain KOX UFR224, genotype CTX-M-15, OXA-48) of the same molecule?
A: >256 µg/mL

Q: What about the MIC ([4]; strain PRE UFR99, genotype OXA-1, OXA-181) of the same molecule?
A: >256 µg/mL

Q: What about the MIC ([4]; strain PRE UFR236, genotype TEM-1, OXA-48) of the same molecule?
A: 64 µg/mL

Q: And the MIC ([5]; strain ECO 4133, genotype TEM-30, OXA-1)?
A: 16 µg/mL

Q: And the MIC ([5]; strain ECO 5302, genotype TEM-1, OXA-1)?
A: 32 µg/mL

Q: What about the MIC ([5]; strain ECO 131119, genotype TEM-1, OXA-48) of the same molecule?
A: 8 µg/mL

Q: And the MIC ([5]; strain ECO 180070, genotype TEM-1, CTX-M-15)?
A: >256 µg/mL

Q: What about the MIC ([5]; strain ECO 190314, genotype CTX-M-1) of the same molecule?
A: >256 µg/mL

Q: And the MIC ([5]; strain ECO 190317, genotype TEM-1, SHV-12, CTX-M-15, OXA-1)?
A: >512 µg/mL

Q: What about the MIC ([5]; strain ECO 190457, genotype CTX-M-15, OXA-1) of the same molecule?
A: >256 µg/mL

Q: And the MIC ([5]; strain ECO 190549, genotype CTX-M-1)?
A: >256 µg/mL

Q: And the MIC ([5]; strain ECO 200159, genotype TEM-1, CTX-M-14)?
A: >256 µg/mL

Q: And the MIC ([5]; strain ECO 200259, genotype CTX-M-14)?
A: >256 µg/mL

Q: What about the MIC ([5]; strain ECO 200344, genotype CTX-M-1) of the same molecule?
A: >256 µg/mL

Q: And the MIC ([5]; strain ECO 260096, genotype CTX-M-132)?
A: >256 µg/mL

Q: And the MIC ([5]; strain ECO 260304, genotype CTX-M-15)?
A: >256 µg/mL

Q: What about the MIC ([5]; strain ECO 260508, genotype TEM-1, CTX-M-15, OXA-1) of the same molecule?
A: >256 µg/mL

Q: What about the MIC ([5]; strain ECO RGN238, genotype OXA-1) of the same molecule?
A: 16 µg/mL

Q: What about the MIC ([5]; strain ECO UFR15, genotype TEM-1, OXA-48) of the same molecule?
A: 16 µg/mL

Q: And the MIC ([5]; strain ECO UFR16, genotype TEM-1, CTX-M-15, OXA-1, OXA-48)?
A: >256 µg/mL

Q: And the MIC ([5]; strain ECO UFR17, genotype TEM-1, CTX-M-15, CMY-2, OXA-1, OXA-181)?
A: >256 µg/mL

Q: And the MIC ([5]; strain ECO UFR18, genotype CTX-M-15, OXA-204)?
A: >256 µg/mL

Q: What about the MIC ([5]; strain ECO UFR19, genotype CTX-M-15, CMY-2, OXA-1, OXA-204) of the same molecule?
A: >256 µg/mL

Q: What about the MIC ([5]; strain ECO UFR20, genotype SHV-1, CTX-M-15, OXA-1, OXA-232) of the same molecule?
A: >256 µg/mL

Q: And the MIC ([5]; strain ECO UFR39, genotype CTX-M-15, NDM-1)?
A: >256 µg/mL

Q: And the MIC ([5]; strain ECO UFR61O, genotype TEM-1, KPC-2)?
A: >256 µg/mL

Q: What about the MIC ([5]; strain ECO UFR62, genotype TEM-1, CTX-M-9, KPC-2) of the same molecule?
A: >256 µg/mL

Q: What about the MIC ([5]; strain ECO UFR74, genotype SHV-1, DHA-1) of the same molecule?
A: >256 µg/mL

Q: And the MIC ([5]; strain ECO UFR86, genotype ompC-, ompF-)?
A: 64 µg/mL

Q: And the MIC ([5]; strain ECO UFR174, genotype TEM-1, KPC-2, OXA-1)?
A: >256 µg/mL

Q: And the MIC ([5]; strain ECO UFR175, genotype TEM-1, KPC-2, OXA-9)?
A: >256 µg/mL

Q: And the MIC ([5]; strain ECO UFR176, genotype KPC-3, OXA-9*)?
A: >256 µg/mL

Q: And the MIC ([5]; strain ECO UFR184, genotype CTX-M-15, CMY-4, OXA-1, OXA-204)?
A: >256 µg/mL

Q: And the MIC ([5]; strain ECO UFR185, genotype OXA-48)?
A: >256 µg/mL

Q: And the MIC ([5]; strain ECO UFR186, genotype TEM-1, CTX-M-14, OXA-48)?
A: >256 µg/mL

Q: What about the MIC ([5]; strain ECO UFR187, genotype CTX-M-15, OXA-48) of the same molecule?
A: >256 µg/mL

Q: What about the MIC ([5]; strain ECO UFR189, genotype TEM-1, CTX-M-15, OXA-48) of the same molecule?
A: >256 µg/mL

Q: And the MIC ([5]; strain ECO UFR190, genotype CTX-M-24, OXA-48)?
A: >256 µg/mL

Q: And the MIC ([5]; strain ECO UFR191, genotype TEM-1, CTX-M-24, OXA-48)?
A: >256 µg/mL

Q: And the MIC ([5]; strain ECO UFR207, genotype CTX-M-15)?
A: >256 µg/mL

Q: What about the MIC ([5]; strain ECO UFR208, genotype SHV-12) of the same molecule?
A: >256 µg/mL

Q: And the MIC ([5]; strain ECO UFR209, genotype TEM-1, CTX-M-15)?
A: >256 µg/mL

Q: And the MIC ([5]; strain ECO UFR210, genotype SHV-12)?
A: >256 µg/mL

Q: What about the MIC ([5]; strain ECO UFR211, genotype TEM-24) of the same molecule?
A: 64 µg/mL

Q: What about the MIC ([5]; strain ECO UFR212, genotype CMY-2) of the same molecule?
A: >256 µg/mL

Q: And the MIC ([5]; strain ECO UFR218, genotype TEM-1, SHV-1, CTX-M-15)?
A: >256 µg/mL
